Experimental data published in patent US20100215635A1, “SMALL MOLECULES TO INDUCE WEIGHT LOSS OR TO REDUCE WEIGHT GAIN” (priority 2009, published 2010).

Key:
Format in all cases: in vivo, mouse
ob/ob mice [1] = test: Effect on body weight of ob/ob obese mice; conditions: for Body weight gained: 4.5 mg/kg s.c. daily for 14 days; for Body weight: 4.5 mg/kg s.c. once daily for 14 days
Source text: Leptin-deficient ob/ob obese diabetic inbred, adult female mice, weighing 32-36 g at arrival, specified pathogen free (SPF) hygienic category from Charles River VRF1, were used for these experiments. The ob/ob obese mouse is an extensively used animal model for the study of non-insulin-dependent-diabetes mellitus (NIDDM). The mutation was propagated in the C57BL/6J (BL/6) inbred strain. Homozygous obese (ob/ob) animals developed hyperglycemia, hyperinsulinemia and obesity. In these animals gluconeogenesis is enhanced despite their hyperinsulinemic state. The animals were kept in macrolon cages at 22-24° C. and 50-60% humidity, with lighting regimen of 12/12 h light dark. The animals had free access tap water and were fed with a sterilized standard diet (Charles River VRF1, autoclavable). The animals were cared for according to the “Guiding Principles for the Care and Use for Animals” based upon the Helsinki declaration. The ob/ob mice gained weight rapidly and develop a marked obesity by 5-6 weeks of age. […] When arrived they were 5 weeks old (when experiment was performed with CC1) or 4.5 weeks old (when experiment was performed with CC3 and CC19); the treatments started 8 days later in the experiment performed with CC1 and 10 days later in the experiment performed with CC3 and CC19. Experimental groups selected from C57/BL or ob/ob mice were injected subcutaneously at regular intervals once daily for 14 days with CCompound1, CCompound3, or CCompound19 at the dose of 4.5-mg per kg. Other groups selected from C57/BL or ob/ob mice remained untreated during the entire length of the experiment. Body weight was measured every day or every second day for 14 days and then on days 21, 40, and 48. All untreated and treated groups included 5 animals except the CCompound1-treated group of ob/ob mice that included 9 animals. The data are expressed as the average ±standard error of mean. On day 1, body weight was measured first followed by the treatment in the CCompound1-treated group. The treatments were repeated for 14 days with no additional treatment performed during the rest of the observation period. […] In contrast, CCompound1 treated mice gained 2.6-g body weight between day 1 and 14, and also only 2.6-g between day 14 and 48. On day 14 and the following days the differences in body weight were statistically highly significant (P<0.001). It is particularly important that between day 14 and 48, weight gain in the treated group was minimal compared to the control group despite discontinuation of the treatment. […] This feature allows intermittent use of CCompound1 and analogs for weight control. On day 1, first body weight was measured, followed by the treatments with CCompound3 (5 mice) or CCompound19 (5 mice) as indicated in TABLE 4. The treatments were repeated for 14 days with no additional treatment performed during the rest of the observation period. One group of animals (5 mice) served as untreated controls. […] Mice treated with CCompound3 gained 3.3-g body weight between day 1 and 15, and 6.8-g between day 15 and 48. Mice treated with CCompound19 gained 2.6-g body weight between day 1 and 15, and 4.2-g between day 15 and 48. […] Again, both CCompound3 and particularly CCompound19 were effective reducing weight between day 15 and 48 despite discontinuation of the treatment after the last treatment on day 15.

ob/ob mice [2] = test: Effect on body weight of ob/ob obese mice; conditions: ob/ob mice (Example 3, Table 4), 4.5 mg/kg s.c. once daily for 14 days; day 20
C57/BL mice = test: Effect on body weight of C57/BL (non-obese control) mice; conditions: for Body weight gained: 4.5 mg/kg s.c. daily for 14 days; for Body weight: 4.5 mg/kg s.c. once daily for 14 days
Description: C57BL6 male mice (10-11 weeks old) were used as non-obese controls of ob/ob mice. These animals were kept under specified pathogen free (SPF) condition and they were fed a standard sterilized diet (Charles River) ad libitum. Experimental groups selected from C57/BL or ob/ob mice were injected subcutaneously at regular intervals once daily for 14 days with CCompound1, CCompound3, or CCompound19 at the dose of 4.5-mg per kg. Other groups selected from C57/BL or ob/ob mice remained untreated during the entire length of the experiment. Body weight was measured every day or every second day for 14 days and then on days 21, 40, and 48. All untreated and treated groups included 5 animals except the CCompound1-treated group of ob/ob mice that included 9 animals. The data are expressed as the average ±standard error of mean. This mouse strain served as the control to the ob/ob mice. On day 1, body weight was measured first followed by the treatment in the CCompound1-treated group. The treatments were repeated for 14 days. […] CCompound1 treated mice also gained 2-g body weight between day 1 and 14, and 4.2-g between day 14 and 48. This small difference between the two groups was not statistically significant. In a follow up experiment using the same treatment regimen, C57/BL mice treated with 6-mg per kg dose of CCompound1 gained 5.6-g weight gain over a 40 days period compared to 5.8-g weight gain in the control group over the same time period. Again, this small difference was not statistically significant.

[3] = ob/ob mice (Example 3), then no treatment, between day 15 and 48 (untreated 11.9 g)
[4] = ob/ob mice (Example 3), between day 1 and 15 (untreated 4.8 g)
[5] = ob/ob mice (Example 3, Table 4), day 1 (before first treatment)
[6] = ob/ob mice (Example 3, Table 4), day 5
[7] = ob/ob mice (Example 3, Table 4), day 10
[8] = ob/ob mice (Example 3, Table 4), day 15
[9] = ob/ob mice (Example 3, Table 4), day 40, P < 0.001 vs no treatment
[10] = ob/ob mice (Example 3, Table 4), day 48, P < 0.001 vs no treatment

C[N+](C)(C)CCC=C1c2ccccc2Sc2ccccc21.[I-] [CCcompound19, N,N,N-trimethyl-3-(9H-thioxanthen-9-ylidene)-propane-1-aminium iodide]
Body weight gained (ob/ob mice [1]; [3]): 4.2 g
Body weight gained (ob/ob mice [1]; [4]): 2.6 g
Body weight (ob/ob mice [1]; [5]): 38.1 ± 0.6 g
Body weight (ob/ob mice [1]; [6]): 38.4 ± 0.7 g
Body weight (ob/ob mice [1]; [7]): 39.7 ± 0.4 g
Body weight (ob/ob mice [1]; [8]): 40.7 ± 0.5 g
Body weight (ob/ob mice [1]; [9]): 43.8 ± 1.3 g
Body weight (ob/ob mice [1]; [10]): 44.9 ± 0.8 g
Body weight (ob/ob mice [2]): 42.1 ± 0.9 g

CC[N+](C)(CC)CCOCc1ccc2sc3ccccc3c(=O)c2c1 [CCcompound3]
Body weight gained (ob/ob mice [1]; [3]): 6.8 g
Body weight gained (ob/ob mice [1]; [4]): 3.3 g
Body weight (ob/ob mice [1]; [5]): 37.0 ± 0.6 g
Body weight (ob/ob mice [1]; [6]): 37.5 ± 1.2 g
Body weight (ob/ob mice [1]; [7]): 38.5 ± 0.9 g
Body weight (ob/ob mice [1]; [8]): 40.3 ± 1.1 g
Body weight (ob/ob mice [1]; [9]): 45.9 ± 0.8 g
Body weight (ob/ob mice [1]; [10]): 47.1 ± 1.0 g
Body weight (ob/ob mice [2]): 42.2 ± 0.5 g

Cc1c(OCC(O)C[N+](C)(C)C)cc2c(=O)c3ccccc3sc2c1C.[Cl-] (centres unmarked) [CCcompound1, [3-(3,4-Dimethyl-9-oxo-9H-thioxanthen-2-yloxy)-2-hydroxypropyl]trimethyl-ammonium chloride]
Body weight gained (C57/BL mice; between day 1 and 14 (untreated 2 g)): 2 g
Body weight gained (C57/BL mice; between day 14 and 48 (untreated 5.2 g; difference not statistically significant)): 4.2 g
Body weight (C57/BL mice; day 1 (before first treatment)): 28.0 ± 0.7 g
Body weight (C57/BL mice; day 2): 27.7 ± 0.6 g
Body weight (C57/BL mice; day 4): 28.2 ± 0.7 g
Body weight (C57/BL mice; day 6): 28.7 ± 0.5 g
Body weight (C57/BL mice; day 8): 28.8 ± 0.4 g
Body weight (C57/BL mice; day 10): 29.6 ± 0.7 g
Body weight (C57/BL mice; day 12): 30.3 ± 1.4 g
Body weight (C57/BL mice; day 14): 30.0 ± 0.9 g
Body weight (C57/BL mice; day 21): 30.7 ± 1.1 g
Body weight (C57/BL mice; day 40): 33.9 ± 0.9 g
Body weight (C57/BL mice; day 48): 34.2 ± 0.8 g
Effect on body weight in normal mice (C57/BL mice; dose range 4.5-6 mg per kg): no effects on the body weight
Weight gain (C57/BL mice; follow up experiment, 6 mg per kg, same regimen, over a 40 days period (control 5.8 g; not statistically significant)): 5.6 g
Body weight gained (ob/ob mice [1]; ob/ob mice, then no treatment, between day 14 and 48 (untreated 11.6 g)): 2.6 g
Body weight gained (ob/ob mice [1]; ob/ob mice, between day 1 and 14 (untreated 4.4 g)): 2.6 g
Body weight (ob/ob mice [1]; ob/ob mice, day 1 (before first treatment)): 40.4 ± 0.7 g
Body weight (ob/ob mice [1]; ob/ob mice, day 2): 40.4 ± 0.6 g
Body weight (ob/ob mice [1]; ob/ob mice, day 3): 40.6 ± 0.6 g
Body weight (ob/ob mice [1]; ob/ob mice, day 4): 40.8 ± 0.6 g
Body weight (ob/ob mice [1]; ob/ob mice, day 5): 40.7 ± 0.6 g
Body weight (ob/ob mice [1]; ob/ob mice, day 6): 41.0 ± 0.6 g
Body weight (ob/ob mice [1]; ob/ob mice, day 7): 41.5 ± 0.6 g
Body weight (ob/ob mice [1]; ob/ob mice, day 8): 41.9 ± 0.7 g
Body weight (ob/ob mice [1]; ob/ob mice, day 9): 42.1 ± 0.7 g
Body weight (ob/ob mice [1]; ob/ob mice, day 10): 42.4 ± 0.7 g
Body weight (ob/ob mice [1]; ob/ob mice, day 11): 42.6 ± 0.6 g
Body weight (ob/ob mice [1]; ob/ob mice, day 12): 42.7 ± 0.6 g
Body weight (ob/ob mice [1]; ob/ob mice, day 13): 42.9 ± 0.6 g
Body weight (ob/ob mice [1]; ob/ob mice, day 14, P < 0.001 vs no treatment): 43.0 ± 0.7 g
Body weight (ob/ob mice [1]; ob/ob mice, day 19, P < 0.001 vs no treatment): 44.3 ± 0.9 g
Body weight (ob/ob mice [1]; ob/ob mice, day 21, P < 0.001 vs no treatment): 44.5 ± 0.8 g
Body weight (ob/ob mice [1]; ob/ob mice, day 45, P < 0.001 vs no treatment): 45.6 ± 1.1 g
Body weight (ob/ob mice [1]; ob/ob mice, day 48, P < 0.001 vs no treatment): 45.6 ± 1.1 g
